Measurements reported in patent US4950686A, “Anti-mycoplasma agent” (Shionogi & Co., Ltd., priority 1986, dated 1990).
In brackets after ≈: the same amount, converted by molar mass.

Tests used:
[1] = system: Mycoplasma gallisepticum MR-1 (wild strain, tylosin-resistant); assay: Anti-mycoplasma activity in vitro (MIC, broth dilution), strain MR-1; format: cell-based; details: Mg MR-1, 37° C., 7 days
Method in brief: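 Broth dilution in chick PPLO broth with 20% equine serum; 2-fold compound dilutions, inoculum diluted to 10^6 CCU/ml. Incubated 7 days at 37 °C; MIC recorded.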

[2] = system: Mycoplasma gallisepticum S6 (standard strain); assay: Anti-mycoplasma activity in vitro (MIC, broth dilution), strain S6; format: cell-based; details: Mg S6, 37° C., 7 days
Method in brief: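 Chick PPLO broth with 20% equine serum; 2-fold serial agent dilutions inoculated with culture diluted to 10^6 CCU/ml (inoculum concentration before addition). Incubated 7 days at 37 °C; MIC by broth dilution.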

[3] = system: Mycoplasma gallisepticum MR-1 (wild strain, tylosin-resistant); assay: Mycoplasma gallisepticum air-sac infection method in chicken, strain MR-1;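 as to Index of Isolation: index = (P×1 + Q×2 + R×3)/S with range 0 to 6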; format: in vivo, Mycoplasma gallisepticum; SPF chicken (white leghorn); details: 100 mg/kg × once oral, 10 mg/ml sol. b
Procedure: (2) Test of Effectiveness Mycoplasma gallisepticum air-sac infection method
MR-1 (wild strain, tylosin-resistant)
Inoculation: To the right air-sac of 9 days old SPF chicken (a white leghorn) which has abstained from water and feed one day before is inoculated 0.20-0.25 ml/chicken of fresh mycoplasma culture incubated for 24-48 hr and diluted with broth (usually 100 times). The concentration in Table 2 is shown in a unit of mg/ml.
Medium: Chick PPLO broth supplemented with 15% equine serum (Eiken Kagaku Co., Ltd.)
Administration: A compound of this invention dissolved or suspended in the following solution is orally and forcibly administered once by a cannula immediately after the infection.
Anatomization and Isolation of Microorganism: The chickens are anatomized 5 days after the infection, and the right and left air sacs are investigated whether they are attacked with a disease or not. The change caused by the disease is represented in four degrees; -: no change, +: slight, ++: medium and +++: serious. Microorganism is isolated from the right and left air-sacs and the trachea by using a sterilized applicator.
Judgement: Judgement is done through an index of an air-sac disease and an index of a microorganism-isolation.
Index of an air-sac-disease: First, indexes in the right and left air-sacs are separately calculated according to the following formula;
{degree of disease (0-3)×chickens}/anatomized chickens
and the index is calculated by the following formula;
(index of right air-sac)×1+(index of left air-sac)×2
Index of a microorganism isolation:
P: chickens from the right air-sac of which microorganism is isolated,
Q: chickens from the trachea of which microorganism is isolated,
R: chickens from the left air-sac of which microorganism is isolated, and
S: chickens investigated.

[4] = system: Mycoplasma hyopneumoniae ST-11 (standard strain); assay: Anti-mycoplasma activity in vitro (MIC, broth dilution), strain ST-11; format: cell-based; details: Mesomycoplasma hyopneumoniae, Mh ST-11; read-out: MIC
Method in brief: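 MIC by broth dilution in Hanks' solution with 0.5% lactoalbumin, yeast, equine serum and phenol red, pH 7.4-7.6. Inoculum: 3-4-day culture, turned yellow, diluted 10-fold in broth (subcultured first if yellowing took over 4 days).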

[5] = system: Mycoplasma gallisepticum T-7-T (wild strain, tylosin-resistant); assay: Anti-mycoplasma activity in vitro (MIC, broth dilution), strain T-7-T; format: cell-based; details: Mg T-7-T, 37° C., 7 days
Method in brief: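 Broth dilution MIC in chick PPLO broth with 20% equine serum, using 2-fold agent dilutions. Inoculum of 24-48 h culture diluted to 10^6 CCU/ml before use. Incubated 7 days at 37° C.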

[6] = system: Mycoplasma gallisepticum T-7-T (wild strain, tylosin-resistant); assay: Mycoplasma gallisepticum air-sac infection method in chicken, strain T-7-T; format: in vivo, Mycoplasma gallisepticum; SPF chicken (white leghorn);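 as to Index of Isolation: index = (P×1 + Q×2 + R×3)/S with range 0 to 6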
Method in brief: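 9-day-old SPF white leghorn chickens, fasted one day, received tylosin-resistant M. gallisepticum T-7-T culture (usually diluted 100×) into the right air sac. Compound was given as a single forced oral dose by cannula immediately after infection, in mg/ml. At day 5, air-sac lesions (0–3) were scored as a weighted index and organisms were re-isolated from the air sacs and trachea.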

[7] = 100 mg/kg × once oral, 10 mg/ml sol. b, inoculum 10^2
[8] = 200 mg/kg × once oral, 20 mg/ml sol. a, inoculum 1.9 × 10^5
[9] = 200 mg/kg × once oral, 20 mg/ml sol. c, inoculum 1.9 × 10^5

O=c1cccccc1O [Tropolone, tropolone]
MIC [1]: 0.39 µg/mL (≈ 3.19 µM) | MIC [2]: 0.2 µg/mL (≈ 1.64 µM) | Change of air-sac, left: + (chickens) ([3]; inoculum 0.3 × 10^5): 0 | Change of air-sac, left: ++ (chickens) ([3]; inoculum 0.3 × 10^5): 0 | Change of air-sac, left: +++ (chickens) ([3]; inoculum 0.3 × 10^5): 0 | Change of air-sac, left: - (chickens) ([3]; inoculum 0.3 × 10^5): 6 | Change of air-sac, right: + (chickens) ([3]; inoculum 0.3 × 10^5): 0 | Change of air-sac, right: ++ (chickens) ([3]; inoculum 0.3 × 10^5): 0 | Change of air-sac, right: +++ (chickens) ([3]; inoculum 0.3 × 10^5): 0 | Change of air-sac, right: - (chickens) ([3]; inoculum 0.3 × 10^5): 6 | Isolation, L (left air-sac) ([3]; inoculum 0.3 × 10^5): 3 | Isolation, R (right air-sac) ([3]; inoculum 0.3 × 10^5): 4 | Isolation, T (trachea) ([3]; inoculum 0.3 × 10^5): 3 | Mycoplasma Isolated Chickens ([3]; inoculum 0.3 × 10^5): 6 | Index of Isolation ([3]; inoculum 0.3 × 10^5, range 0-6.0): 3.2 | Index of Disease ([3]; inoculum 0.3 × 10^5, range 0-9.0): 0 | MIC [4]: 0.78 µg/mL (≈ 6.39 µM) | MIC [5]: 0.39 µg/mL (≈ 3.19 µM) | Change of air-sac, left: + (chickens) [6, 7]: 0 | Change of air-sac, left: ++ (chickens) [6, 7]: 0 | Change of air-sac, left: +++ (chickens) [6, 7]: 0 | Change of air-sac, left: - (chickens) [6, 7]: 8 | Change of air-sac, right: + (chickens) [6, 7]: 0 | Change of air-sac, right: ++ (chickens) [6, 7]: 0 | Change of air-sac, right: +++ (chickens) [6, 7]: 0 | Change of air-sac, right: - (chickens) [6, 7]: 8 | Isolation, L (left air-sac) [6, 7]: 1 | Isolation, R (right air-sac) [6, 7]: 0 | Isolation, T (trachea) [6, 7]: 1 | Mycoplasma Isolated Chickens [6, 7]: 2 | Index of Isolation ([6]; 100 mg/kg × once oral, 10 mg/ml sol. b, inoculum 10^2, range 0-6.0): 0.40 | Index of Disease ([6]; 100 mg/kg × once oral, 10 mg/ml sol. b, inoculum 10^2, range 0-9.0): 0 | Change of air-sac, left: + (chickens) [6, 8]: 0 | Change of air-sac, left: ++ (chickens) [6, 8]: 0 | Change of air-sac, left: +++ (chickens) [6, 8]: 0 | Change of air-sac, left: - (chickens) [6, 8]: 5 | Change of air-sac, right: + (chickens) [6, 8]: 0 | Change of air-sac, right: ++ (chickens) [6, 8]: 0 | Change of air-sac, right: +++ (chickens) [6, 8]: 0 | Change of air-sac, right: - (chickens) [6, 8]: 5 | Isolation, L (left air-sac) [6, 8]: 2 | Isolation, R (right air-sac) [6, 8]: 2 | Isolation, T (trachea) [6, 8]: 3 | Mycoplasma Isolated Chickens [6, 8]: 3 | Index of Isolation ([6]; 200 mg/kg × once oral, 20 mg/ml sol. a, inoculum 1.9 × 10^5, range 0-6.0): 2.8 | Index of Disease ([6]; 200 mg/kg × once oral, 20 mg/ml sol. a, inoculum 1.9 × 10^5, range 0-9.0): 0 | Change of air-sac, left: + (chickens) [6, 9]: 0 | Change of air-sac, left: ++ (chickens) [6, 9]: 0 | Change of air-sac, left: +++ (chickens) [6, 9]: 0 | Change of air-sac, left: - (chickens) [6, 9]: 5 | Change of air-sac, right: + (chickens) [6, 9]: 0 | Change of air-sac, right: ++ (chickens) [6, 9]: 0 | Change of air-sac, right: +++ (chickens) [6, 9]: 0 | Change of air-sac, right: - (chickens) [6, 9]: 5 | Isolation, L (left air-sac) [6, 9]: 4 | Isolation, R (right air-sac) [6, 9]: 4 | Isolation, T (trachea) [6, 9]: 5 | Mycoplasma Isolated Chickens [6, 9]: 5 | Index of Isolation ([6]; 200 mg/kg × once oral, 20 mg/ml sol. c, inoculum 1.9 × 10^5, range 0-6.0): 5.2 | Index of Disease ([6]; 200 mg/kg × once oral, 20 mg/ml sol. c, inoculum 1.9 × 10^5, range 0-9.0): 0
